Experimental findings from ChEMBL document CHEMBL4387732, “Capsaicin-like analogue induced selective apoptosis in A2058 melanoma cells: Design, synthesis and molecular modeling” (Bioorg Med Chem, 2019) are described below.

Each structure is given as a SMILES string. Calls of active or inactive are those of the source. The calls are words filed in the database; no cut-off is given here. A value given as a limit tells only on which side of the number the result lay.

Assay [1] has as its system A2058. Description: Cytotoxicity against human A2058 cells assessed as decrease in cell viability incubated for 24 hrs by MTT assay. Format: functional, cell-based. The note with it: A2058, 24 h.
The nature of assay [2]: Selectivity index, ratio of IC50 for human T75 cells to IC50 for human A2058 cells.
In a further assay the test system is MCF7. Description: Cytotoxicity against human MCF7 cells assessed as decrease in cell viability incubated for 24 hrs by MTT assay. The format is functional, cell-based. In general terms: Formazan colour is commonly taken as a measure of viable cells.
Another assay deals with HeLa. Description: Cytotoxicity against human HeLa cells assessed as decrease in cell viability incubated for 24 hrs by MTT assay. The format is functional, cell-based.
Assay [3] concerns B16-F10. Description: Cytotoxicity against mouse B16F10 cells assessed as decrease in cell viability incubated for 24 hrs by MTT assay. The format is functional, cell-based. The note with it: B16-F10, 24 h.
A further assay deals with U-87 MG. Description: Cytotoxicity against human U87 cells assessed as decrease in cell viability incubated for 24 hrs by MTT assay. The format is functional, cell-based, U-87MG ATCC.
Another assay concerns SK-MEL-25. Description: Cytotoxicity against human SK-MEL-25 cells assessed as decrease in cell viability incubated for 24 hrs by MTT assay. Format: functional, cell-based. The note with it: SK-MEL-25, 24 h.
The nature of assay [4]: Cytotoxicity against human T75 cells assessed as decrease in cell viability incubated for 24 hrs by MTT assay. The format is cell-based.
Assay [5] has as its target T1, Transient receptor potential cation channel subfamily V member 6 (Homo sapiens) (UniProt Q9H1D0).
T1 sequence (whole entry): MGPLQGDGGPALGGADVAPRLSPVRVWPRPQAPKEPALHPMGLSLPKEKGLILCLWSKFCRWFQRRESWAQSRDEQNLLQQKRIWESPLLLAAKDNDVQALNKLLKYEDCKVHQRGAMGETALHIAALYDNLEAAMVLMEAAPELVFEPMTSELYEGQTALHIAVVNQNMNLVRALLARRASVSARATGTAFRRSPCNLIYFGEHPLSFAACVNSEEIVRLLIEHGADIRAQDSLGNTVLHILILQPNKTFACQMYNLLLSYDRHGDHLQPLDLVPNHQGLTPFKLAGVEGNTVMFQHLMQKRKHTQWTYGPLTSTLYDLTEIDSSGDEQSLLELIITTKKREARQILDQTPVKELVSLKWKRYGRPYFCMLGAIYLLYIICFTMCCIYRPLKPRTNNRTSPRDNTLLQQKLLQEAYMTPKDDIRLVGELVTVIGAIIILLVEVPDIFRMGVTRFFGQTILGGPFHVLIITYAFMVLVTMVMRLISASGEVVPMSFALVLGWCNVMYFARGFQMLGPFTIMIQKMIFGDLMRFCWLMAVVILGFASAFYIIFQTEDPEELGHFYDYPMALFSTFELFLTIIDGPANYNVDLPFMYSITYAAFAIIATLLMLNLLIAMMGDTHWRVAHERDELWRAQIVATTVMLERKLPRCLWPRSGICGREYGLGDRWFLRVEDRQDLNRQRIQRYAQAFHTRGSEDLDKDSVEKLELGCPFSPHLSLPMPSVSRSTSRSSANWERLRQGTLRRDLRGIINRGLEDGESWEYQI
Put plainly: Antagonist activity at human TRPV6 expressed in human HEK293 cells assessed as reduction in Ca2+ transport at 2.5 uM incubated for 5 mins by calcium-5 fluorescence dye-based FLIPR assay. The format is cell-based.

Assay [6] has as its system B16-F10. Description: Cell cycle arrest in mouse B16F10 cells assessed as variation in subG0/G1 population at 12.5 to 50 uM incubated for 24 hrs by propidium iodide staining-based flow cytometric analysis. The format is functional. A general note: A flow cytometer gives signals particle by particle.
The subject of assay [7] is A2058. Put plainly: Induction of apoptosis in human A2058 cells assessed as ratio of beta-actin to C-RAF expression incubated for 3 hrs by Western blot analysis. The format is functional.
Assay [8] relates to A2058. Description: Cell cycle arrest in human A2058 cells assessed as accumulation of cells in subG0/G1 phase at 12.5 to 50 uM incubated for 24 hrs by propidium iodide staining-based flow cytometric analysis. The format is functional.
Assay [9] relates to A2058. Description: Cytotoxicity against human A2058 cells assessed as loss of refringence incubated for 24 hrs by microscopic method. Format: functional, cell-based.
Assay [10] deals with A2058. Put plainly: Induction of apoptosis in human A2058 cells assessed as ratio of beta-actin to C-RAF expression incubated for 6 hrs by Western blot analysis. The format is functional. In general terms: A western blot detects proteins with antibodies after separation by electrophoresis.
The subject of assay [11] is B16-F10. Put plainly: Cytotoxicity against mouse B16F10 cells assessed as cell cycle arrest incubated for 24 hrs by microscopic method. The format is functional, cell-based.
In assay [12] the test system is A2058. Put plainly: Induction of apoptosis in human A2058 cells assessed as ratio of beta-actin to B-RAF expression incubated for 1 hrs by Western blot analysis. The format is functional.
Assay [13] relates to A2058. Put plainly: Induction of apoptosis in human A2058 cells assessed as ratio of beta-actin to caspase 3 expression incubated for 1 hrs by Western blot analysis. The format is functional.
The test system of assay [14] is A2058. Put plainly: Cytotoxicity against human A2058 cells assessed as alteration in cell morphology incubated for 24 hrs by microscopic method. The format is functional, cell-based.
For assay [15], the system named is A2058. Put plainly: Induction of apoptosis in human A2058 cells assessed as ratio of beta-actin to B-RAF expression incubated for 3 hrs by Western blot analysis. The format is functional.
In assay [16] the test system is A2058. Description: Cytotoxicity against human A2058 cells assessed as induction of withdrawal of cytoplasm incubated for 24 hrs by microscopic method. The format is functional, cell-based.
In assay [17] the test system is A2058. Description: Induction of apoptosis in human A2058 cells assessed as ratio of beta-actin to C-RAF expression incubated for 1 hrs by Western blot analysis. The format is functional.
The subject of assay [18] is A2058. Put plainly: Induction of apoptosis in human A2058 cells assessed as ratio of beta-actin to BCL-XL expression incubated for 3 hrs by Western blot analysis. The format is functional.
For the next assay, the system named is HEK-293T. Description: Effect on Ca2+ transport in human HEK293T cells incubated for 5 mins by calcium-5 fluorescence dye-based FLIPR assay. Format: functional, cell-based.
For another assay, the system named is Mus musculus. Put plainly: In-vivo activation of TRPV1 receptor in Swiss mouse assessed as induction of nociception by measuring paw flinching/licking response at 5.2 nmol/paw administrated via intraplantar route and measured for first 5 mins post treatment. Format: functional, organism-based.
Assay [19] relates to A2058. Description: Cytotoxicity against human A2058 cells assessed as loss of cell adhesion incubated for 24 hrs by microscopic method. Format: functional, cell-based.
For assay [20], the system named is B16-F10. Put plainly: Cell cycle arrest in mouse B16F10 cells assessed as increase the G0/G1 phase incubated for 24 hrs by propidium iodide staining-based flow cytometric analysis. Format: functional.
Assay [21] has as its system A2058. Description: Induction of apoptosis in human A2058 cells assessed as ratio of beta-actin to caspase 3 expression incubated for 3 hrs by Western blot analysis. The format is functional.
The subject of assay [22] is A2058. Put plainly: Cytotoxicity against human A2058 cells assessed as marked formation of apoptotic bodies incubated for 24 hrs by microscopic method. Format: functional, cell-based.
The subject of assay [23] is A2058. Put plainly: Induction of apoptosis in human A2058 cells assessed as ratio of beta-actin to BCL-XL expression incubated for 6 hrs by Western blot analysis. Format: functional.
The target of assay [24] is T2, Transient receptor potential cation channel subfamily V member 1 (Homo sapiens, UniProt Q8NER1). Description: Agonist activity at human TRPV1 expressed in HEK293T cells assessed as increase in Ca2+ transport incubated for 5 mins by calcium-5 fluorescence dye-based FLIPR assay. The format is cell-based.
The subject of assay [25] is A2058. Put plainly: Induction of apoptosis in human A2058 cells assessed as ratio of beta-actin to caspase 3 expression incubated for 6 hrs by Western blot analysis. Format: functional.
The test system of assay [26] is A2058. Description: Induction of apoptosis in human A2058 cells assessed as increase in cleaved caspase 3 expression level incubated for 6 hrs by Western blot analysis. The format is functional, cell-based.
In assay [27] the test system is A2058. Description: Induction of apoptosis in human A2058 cells assessed as ratio of beta-actin to B-RAF expression incubated for 6 hrs by Western blot analysis. The format is functional.
Assay [28] has as its target T1, Transient receptor potential cation channel subfamily V member 6 (Homo sapiens). Put plainly: Agonist activity at human TRPV6 expressed in human HEK293 cells assessed as increase in Ca2+ transport at 50 uM incubated for 5 mins by calcium-5 fluorescence dye-based FLIPR assay. Format: cell-based.
The test system of assay [29] is A2058. Put plainly: Induction of apoptosis in human A2058 cells assessed as ratio of beta-actin to BCL-XL expression incubated for 1 hrs by Western blot analysis. The format is functional.
Assay [30] deals with T2, Transient receptor potential cation channel subfamily V member 1. Put plainly: Agonist activity at human TRPV1 expressed in human HEK293T cells assessed as increase in Ca2+ transport at 10 uM incubated for 5 mins in presence of TRPV1 antagonist capsazepine by calcium-5 fluorescence dye-based FLIPR assay. Format: cell-based.
Assay [31] deals with A2058. Description: Cell cycle arrest in human A2058 cells assessed as accumulation of cells in G0/G1 phase incubated for 24 hrs by propidium iodide staining-based flow cytometric analysis. The format is functional.
In assay [32] the target is T1, Transient receptor potential cation channel subfamily V member 6 (Homo sapiens). Put plainly: Agonist activity at human TRPV6 expressed in human HEK293 cells assessed as increase in Ca2+ transport at 100 nM incubated for 5 mins by calcium-5 fluorescence dye-based FLIPR assay. The format is cell-based.

T2 sequence (Q8NER1 whole entry): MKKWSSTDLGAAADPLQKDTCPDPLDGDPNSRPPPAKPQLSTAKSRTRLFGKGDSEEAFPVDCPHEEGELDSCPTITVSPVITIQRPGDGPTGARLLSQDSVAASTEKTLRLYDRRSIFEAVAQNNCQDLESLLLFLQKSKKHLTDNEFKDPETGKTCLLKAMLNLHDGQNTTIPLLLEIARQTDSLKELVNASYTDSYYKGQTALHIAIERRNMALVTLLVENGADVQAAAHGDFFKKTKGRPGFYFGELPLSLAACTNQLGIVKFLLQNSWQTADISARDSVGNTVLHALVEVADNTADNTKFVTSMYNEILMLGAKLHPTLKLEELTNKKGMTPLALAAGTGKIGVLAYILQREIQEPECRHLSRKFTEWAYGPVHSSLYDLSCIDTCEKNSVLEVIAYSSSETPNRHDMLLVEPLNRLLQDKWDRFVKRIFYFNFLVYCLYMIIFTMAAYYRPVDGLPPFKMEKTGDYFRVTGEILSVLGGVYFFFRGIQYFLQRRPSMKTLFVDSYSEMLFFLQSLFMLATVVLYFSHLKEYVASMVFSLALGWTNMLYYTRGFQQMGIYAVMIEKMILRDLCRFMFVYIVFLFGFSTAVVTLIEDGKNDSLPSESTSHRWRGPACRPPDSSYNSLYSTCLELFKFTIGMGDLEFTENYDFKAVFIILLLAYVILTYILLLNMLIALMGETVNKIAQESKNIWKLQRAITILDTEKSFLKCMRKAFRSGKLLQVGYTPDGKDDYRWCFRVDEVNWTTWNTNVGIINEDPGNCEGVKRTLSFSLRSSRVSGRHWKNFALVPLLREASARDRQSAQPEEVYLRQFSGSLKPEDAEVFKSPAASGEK

Take `COc1ccc(NC(=O)NCc2ccc(O)c(OC)c2)cc1`: the IC50 – broadly, the concentration that inhibits the measured activity by half – in the assay on A2058 [1] was 92.5 µM; in the assay with B16-F10 [3], greater than 100 µM; in the assay on U-87 MG it was greater than 100 µM; in the assay on SK-MEL-25 it was 91.8 µM; in assay [4], greater than 100 µM. Moreover, the “Ratio IC50” value in assay [2] is greater than 1.08. The outcome in the assay with MCF7 and in the assay on HeLa was inactive.
As for `Cc1cccc([C@H]2CC[C@@H](N3CCN(c4cccnc4)CC3)CC2)c1`, in assay [5], the inhibition result is “Active”.
As for `CCCCCCNC(=S)NCc1ccc2c(c1)OCO2`, the result (with B16-F10 [6]; in the assay with MCF7; in the assay with HEK-293T; with Mus musculus; in the assay on HeLa; in [28]) was inactive. Moreover, in assay [30], the result was inactive. Moreover, the Ratio is reported as 0.49 with A2058 [7]; 0.32 in the assay on A2058 [10]; 0.45 in the assay with A2058 [12]; 1.18 in the assay with A2058 [13]; 0.48 with A2058 [15]; 0.6 with A2058 [17]. The Ratio in the assay on A2058 [18] turned out to be 1.2; in the assay with A2058 [21], 1.11; with A2058 [23], 0.6; with A2058 [25], 0.6; in the assay on A2058 [27], 0.52; with A2058 [29], 1.22. For the same compound, the result with A2058 [8], with A2058 [9], with B16-F10 [11], in the assay with A2058 [14], with A2058 [16] and with A2058 [19] was Active. Also, the outcome in the assay on A2058 [22] and with A2058 [26] was Active. In addition, the half-maximal inhibitory concentration (IC50) with A2058 [1] is 55.2 µM; with B16-F10 [3], greater than 100 µM; in the assay on U-87 MG, 87 µM; in the assay on SK-MEL-25, 67.2 µM; in assay [4], greater than 100 µM. Also, in [2], the “Ratio IC50” value is reported as greater than 1.8. The Activity entry with B16-F10 [20] and in the assay on A2058 [31] was “Dose-dependent effect” in each case. The EC50 (in general, the concentration giving half of the maximal effect) in [24] amounted to 4.62 µM.
In the case of `COc1cc(CNC(=O)Nc2ccc(Cl)cc2)ccc1O`, the half-maximal inhibitory concentration (IC50) with A2058 [1] is 84.5 µM; in the assay with B16-F10 [3] it was greater than 100 µM; in the assay with U-87 MG, 92.5 µM; in the assay with SK-MEL-25, 90.5 µM; in [4] it was greater than 100 µM. Besides, the “Ratio IC50” value in assay [2] is greater than 1.18. Moreover, the outcome in the assay on MCF7 and with HeLa was inactive.
`COc1cc(CNC(=O)Nc2ccc([N+](=O)[O-])cc2)ccc1O`: the IC50 in the assay with A2058 [1] was 98.2 µM; with B16-F10 [3], greater than 100 µM; with U-87 MG, 98.5 µM; in the assay with SK-MEL-25, 98.7 µM; in assay [4] it was greater than 100 µM. For the same compound, the “Ratio IC50” value in assay [2] was greater than 1.1. Besides, the result in the assay on MCF7 and in the assay with HeLa was inactive.
In the case of `COc1cc(CNC(=O)CCCC/C=C/C(C)C)ccc1O` [CAPSAICIN], the half-inhibitory concentration (IC50) (in the assay with A2058 [1]; with B16-F10 [3]; in the assay with U-87 MG; with SK-MEL-25; in [4]) was greater than 100 µM each time. The result (in assay [32]; with HEK-293T) was inactive. Moreover, in the assay with Mus musculus, the result was Active.
